Reference: patent US20250154193A1, “STEROID COMPOUND, AND PREPARATION METHOD THEREFOR AND APPLICATION THEREOF” (CHOLESGEN (SHANGHAI) CO., LTD., priority 2022, published 2025)

system: SREBP pathway; test: SREBP luciferase reporter gene system (SRE-luciferase assay) in Huh-7/SRE-Luc cells; format: cell-based; conditions: Homo sapiens, sterol-deficient medium, compound treatment 16 hours, luciferase/GFP ratio
Procedure: Huh-7/SRE-Luc, a human hepatocellular carcinoma cell line, was grown in a culture medium containing DMEM, 10% fetal bovine serum, 100 units/mL penicillin, 100 µg/mL streptomycin, and 200 μg/mL G418.
The Huh-7/SRE-Luc cell line is a human hepatocellular carcinoma cell line Huh-7 stably expressing LDLR promoter-luciferase and green fluorescent protein (GFP). The LDLR promoter region contains a sterol regulatory element (SRE) that can effectively and sensitively respond to the regulation of the transcription factor SREBP. The GFP signal serves as an internal reference to indicate changes in cell number. Therefore, this cell line can be used to screen for active small molecules that regulate the SREBP signaling pathway. […] Cells were incubated in a sterol-deficient medium (5% lipoprotein-deficient serum, 2 μM Lovastatin, 10 μM mevalonate) and treated with corresponding concentrations of compounds for 16 hours. After compound treatment, the cells were lysed with lysis buffer (E397A, Promega), followed by the addition of luciferase substrate (E1500, Promega). The SRE-driven luciferase activity was measured using a BioTek Synergy HTX microplate reader (including but not limited to this type of instrument). The fluorescence intensity of enhanced green fluorescent protein (EGFP) was also measured using the BioTek microplate reader (including but not limited to this type of instrument) and used as an internal reference. The ratio of SRE-driven luciferase activity to GFP fluorescence intensity was used as an indicator of SREBP pathway activity. The test data of each test compound was analyzed using Prism software to obtain the IC50 parameter of the compound.
The inhibitory effect of the compounds of the present disclosure on the SREBP pathway was tested by the method of bioassay example 2. The concentration gradient of each compound was designed as 0.01, 0.03, 0.1, 0.3, 1.0, 3.0, and […], with DMSO as a vehicle control.

Row | SMILES | IC50
1 | C[C@H](CCCC(C)(C)O)[C@H]1CC[C@@]2(C)[C@@H]3C(O)C[C@H]4C(C)(C)[C@@H](O)CC[C@]4(C)[C@H]3CC[C@]12C (stereo partly drawn) [compound 237, (1R,3aS,5aR,7S,9aR,11aR)-1-[(2R)-6-hydroxy-6-methylheptan-2-yl]-3a,6,6,9a,11a-pentamethylhexadecahydro-1H-cyclopenta[1,2-α]phenanthrene-4,7-diol] | 7.04 µM
2 | C[C@H](CCCC(C)(C)O)[C@H]1CC[C@H]2[C@@H]3CC[C@H]4C[C@@H](OC(=O)CCC(=O)O)CC[C@]4(C)[C@H]3CC[C@]12C [compound 294, 4-{[(1R,3aS,3bR,5aS,7S,9aS,9bS,11aR)-1-[(2R)-6-hydroxy-6-methylheptan-2-yl]-9a,11a-dimethylhexadecahydro-1H-cyclopenta[1,2-a]phenanthren-7-yl]oxy}-4-oxobutanoic acid] | 0.139 µM
3 | C[C@H](CCCC(C)(C)O)[C@H]1CC[C@H]2[C@@H]3C(O)C[C@H]4C[C@@H](O)CC[C@]4(C)[C@H]3CC[C@]12C (stereo partly drawn) [compound 210, 5α-cholest-3β,7,25-triol] | 0.837 µM
4 | C[C@H](CCCC(O)c1c(F)cccc1F)[C@H]1CC[C@H]2[C@@H]3C(=O)C[C@H]4[C@@H](O)[C@@H](O)CC[C@]4(C)[C@H]3CC[C@]12C (stereo partly drawn) [compound 289, 24-[(2,6-difluorophenyl)(hydroxy)methyl]-4β-hydroxy-3β-hydroxy-5α-cholan-7-one] | 0.117 µM
5 | C[C@H](CCCC1(O)CC1)[C@H]1CC[C@H]2[C@H]3[C@H](CC[C@]12C)[C@@]1(C)CC[C@H](O)C[C@@H]1CC3(F)F [compound 288, (1R,3aS,5aR,7S,9aS,11aR)-4,4-difluoro-1-[(2R)-5-(hydroxycyclopropyl)pentan-2-yl]-9a,11a-dimethylhexadecahydro-1H-cyclopenta[1,2-a]phenanthrene-7-ol] | 0.308 µM
6 | C[C@H](CCCC(O)c1ccccc1)[C@H]1CC[C@H]2[C@@H]3CC[C@H]4[C@@H](O)[C@@H](O)CC[C@]4(C)[C@H]3CC[C@]12C (stereo partly drawn) [compound 305, 24-(hydroxyphenylmethyl)-5α-cholan-3β,4β-diol] | 0.119 µM
7 | C[C@H](CCCC(C)(C)O)[C@H]1CC[C@H]2[C@@H]3CCC4(O)C(=O)[C@@H](O)CC[C@]4(C)[C@H]3CC[C@]12C (stereo partly drawn) [compound 276, 3P,5,25-trihydroxycholest-4-one] | 0.522 µM
8 | C[C@H](CCCC(C)(C)O)[C@H]1CC[C@H]2[C@@H]3CC[C@]4(O)[C@@H](O)[C@@H](O)CC[C@]4(C)[C@H]3CC[C@]12C (single isomer, unassigned) [compound 248, cholest-3β,4,5,25-tetraol] | 0.766 µM
9 | C[C@H](CCCC(O)C(F)(F)F)[C@H]1CC[C@H]2[C@@H]3CC[C@H]4C[C@@H](O)CC[C@]4(C)[C@H]3CC[C@]12C (stereo partly drawn) [compound 218, 24-(2,2,2-trifluoro-1-hydroxyethyl)-5α-cholan-3β-ol] | 0.296 µM
10 | C[C@H](CCCC(O)c1ccccc1F)[C@H]1CC[C@H]2[C@@H]3CC[C@H]4C[C@@H](O)CC[C@]4(C)[C@H]3CC[C@]12C (stereo partly drawn) [compound 251, 24-[(2-fluorophenyl)(hydroxy)methyl]-5α-cholan-3β-ol] | 0.321 µM
11 | Cc1ccccc1C(O)CCC[C@@H](C)[C@H]1CC[C@H]2[C@@H]3CC[C@H]4[C@@H](O)[C@@H](O)CC[C@]4(C)[C@H]3CC[C@]12C (stereo partly drawn) [compound 323, 24-[hydroxy(2-methylphenyl)methyl]-5α-cholan-3β,4β-diol] | 0.25 µM
12 | CC(O)CCC[C@@H](C)[C@H]1CC[C@H]2[C@@H]3CC[C@H]4[C@@H](O)[C@@H](O)CC[C@]4(C)[C@H]3CC[C@]12C (stereo partly drawn) [compound 304, 24-(1-hydroxyethyl)-5α-cholan-3β,4β-diol] | 0.173 µM
